This note sets out measurements from patent publication US10125098B2, “Therapeutic compounds and methods of use thereof” (GENENTECH, INC., priority 2014, dated 2018).

Data set [1] addresses T1, human NaV1.7 (Homo sapiens, UniProt Q15858).
T1 construct: permanently transfected with an expression vector containing the full-length cDNA coding for the desired human sodium channel α-subunit; expressed in transfected cells; host or cells: HEK-293
Briefly: Patch voltage clamp electrophysiology assay (EP), NaV1.7. It is filed as cell-based. The settings on record: HEK-293 cells stably expressing NaV1.7 with β1 subunit; whole-cell patch clamp, membrane potential −60 mV (inactivated state). The method in brief: (§1)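 Percent block is the drop in sodium current after compound wash-on, measured by a test pulse following 20 ms at −150 mV from a −60 mV inactivating holding potential.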

Data set [2] addresses T2, hNav1.7 (Homo sapiens, UniProt Q15858).
T2 construct: expressed in transfected cells
Briefly: Tritiated compound binding (LBA) to membranes from cells expressing hNav1.7 and the β1 subunit, competitive binding. The settings on record: competitive binding vs 100 pM [3H]compound, 18 h, room temperature, membranes with hNav1.7 and β1 subunit. An outline of the steps: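 Competitive displacement of 100 pM [3H]compound (tritiated methyl analogue of formula (I)) from hNav1.7/β1 membranes, 18 h at room temperature in NaCl/Tris pH 7.4 buffer containing 0.01% BSA. 1 μM unlabeled compound set non-specific binding. Bound label quantified by scintillation after filtration; 4-parameter fit gave IC50.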

In data set [3] the target is T3, NaV1.5 (Homo sapiens, UniProt Q14524).
T3 construct: permanently transfected with an expression vector containing the full-length cDNA coding for the desired human sodium channel α-subunit; expressed in transfected cells; host or cells: HEK-293
Briefly: Patch voltage clamp electrophysiology assay (EP), NaV1.5. It is filed as cell-based. The following applies: HEK-293 cells stably expressing NaV1.5 with β1 subunit, whole-cell patch clamp, membrane potential −60 mV (inactivated state). An outline of the steps: as §1
(In general: Patch clamp records ionic current or voltage across a cell membrane.)

[4] abbreviates: human, HEK-293 cells stably expressing human NaV1.5 with β1 subunit, pH 7.4.

Like-named read-outs stand apart in the source and are kept apart here.

T2 sequence (Q15858 1-1977 isoform Q15858-3): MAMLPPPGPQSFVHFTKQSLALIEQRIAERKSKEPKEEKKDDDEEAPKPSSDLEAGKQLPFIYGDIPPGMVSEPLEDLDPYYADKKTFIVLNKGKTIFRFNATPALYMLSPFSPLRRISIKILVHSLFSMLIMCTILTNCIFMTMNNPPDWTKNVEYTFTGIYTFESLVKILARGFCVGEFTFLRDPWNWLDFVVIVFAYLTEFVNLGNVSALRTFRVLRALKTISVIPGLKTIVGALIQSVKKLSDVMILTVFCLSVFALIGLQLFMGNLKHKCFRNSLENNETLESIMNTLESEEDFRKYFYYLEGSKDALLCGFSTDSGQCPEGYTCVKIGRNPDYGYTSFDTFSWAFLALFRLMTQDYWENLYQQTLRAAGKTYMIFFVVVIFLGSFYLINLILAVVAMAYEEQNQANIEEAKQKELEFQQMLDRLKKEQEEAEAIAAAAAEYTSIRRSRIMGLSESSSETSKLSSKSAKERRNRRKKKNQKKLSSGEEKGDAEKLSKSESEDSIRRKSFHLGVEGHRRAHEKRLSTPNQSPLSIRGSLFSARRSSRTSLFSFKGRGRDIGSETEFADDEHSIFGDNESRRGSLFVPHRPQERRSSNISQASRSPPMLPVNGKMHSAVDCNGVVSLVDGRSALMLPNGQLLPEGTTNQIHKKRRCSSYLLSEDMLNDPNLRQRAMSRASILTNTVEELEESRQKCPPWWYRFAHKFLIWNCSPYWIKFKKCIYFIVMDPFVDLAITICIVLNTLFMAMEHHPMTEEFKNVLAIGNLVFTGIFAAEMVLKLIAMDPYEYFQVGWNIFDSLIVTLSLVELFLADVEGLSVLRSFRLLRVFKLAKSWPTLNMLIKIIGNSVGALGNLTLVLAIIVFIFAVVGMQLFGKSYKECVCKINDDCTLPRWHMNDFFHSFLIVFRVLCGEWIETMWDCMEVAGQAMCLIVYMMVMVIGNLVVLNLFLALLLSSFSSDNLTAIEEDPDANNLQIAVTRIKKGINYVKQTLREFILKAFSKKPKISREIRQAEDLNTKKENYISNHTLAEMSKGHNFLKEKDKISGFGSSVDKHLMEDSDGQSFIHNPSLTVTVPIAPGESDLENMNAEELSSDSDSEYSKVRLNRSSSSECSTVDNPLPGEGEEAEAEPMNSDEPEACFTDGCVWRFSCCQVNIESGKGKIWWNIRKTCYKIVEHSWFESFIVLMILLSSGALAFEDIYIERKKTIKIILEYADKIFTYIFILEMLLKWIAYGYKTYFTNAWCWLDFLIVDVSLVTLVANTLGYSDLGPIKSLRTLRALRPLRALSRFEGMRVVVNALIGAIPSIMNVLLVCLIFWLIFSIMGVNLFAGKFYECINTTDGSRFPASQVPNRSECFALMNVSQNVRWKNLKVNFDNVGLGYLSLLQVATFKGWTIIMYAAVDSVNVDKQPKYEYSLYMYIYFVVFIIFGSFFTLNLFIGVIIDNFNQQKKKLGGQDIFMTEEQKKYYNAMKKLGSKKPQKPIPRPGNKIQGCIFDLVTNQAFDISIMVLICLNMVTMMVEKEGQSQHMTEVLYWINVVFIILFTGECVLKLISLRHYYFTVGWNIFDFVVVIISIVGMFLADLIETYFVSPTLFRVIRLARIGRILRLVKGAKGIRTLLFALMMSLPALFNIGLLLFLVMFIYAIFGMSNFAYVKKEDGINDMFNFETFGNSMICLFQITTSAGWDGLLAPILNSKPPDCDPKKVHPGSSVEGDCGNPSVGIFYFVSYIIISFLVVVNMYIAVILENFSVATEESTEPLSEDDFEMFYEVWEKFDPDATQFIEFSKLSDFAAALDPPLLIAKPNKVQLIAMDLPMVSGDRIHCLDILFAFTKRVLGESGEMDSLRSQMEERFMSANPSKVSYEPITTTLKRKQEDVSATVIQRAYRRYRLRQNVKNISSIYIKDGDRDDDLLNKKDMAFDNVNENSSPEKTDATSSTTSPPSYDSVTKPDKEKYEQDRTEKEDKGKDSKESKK
T2 sequence (Q07699 19-218 partner): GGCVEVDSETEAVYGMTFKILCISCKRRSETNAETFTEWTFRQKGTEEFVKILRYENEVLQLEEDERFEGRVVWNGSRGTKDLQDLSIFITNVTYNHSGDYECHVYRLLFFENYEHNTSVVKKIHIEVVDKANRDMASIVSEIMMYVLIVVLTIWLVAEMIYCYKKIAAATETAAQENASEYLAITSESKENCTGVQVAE
T1 sequence (Q15858 1-1977 isoform Q15858-3): as the sequence (Q15858 1-1977 isoform Q15858-3) above
T1 sequence (Q07699 19-218 partner): as the sequence (Q07699 19-218 partner) above
T3 sequence (Q14524 whole entry): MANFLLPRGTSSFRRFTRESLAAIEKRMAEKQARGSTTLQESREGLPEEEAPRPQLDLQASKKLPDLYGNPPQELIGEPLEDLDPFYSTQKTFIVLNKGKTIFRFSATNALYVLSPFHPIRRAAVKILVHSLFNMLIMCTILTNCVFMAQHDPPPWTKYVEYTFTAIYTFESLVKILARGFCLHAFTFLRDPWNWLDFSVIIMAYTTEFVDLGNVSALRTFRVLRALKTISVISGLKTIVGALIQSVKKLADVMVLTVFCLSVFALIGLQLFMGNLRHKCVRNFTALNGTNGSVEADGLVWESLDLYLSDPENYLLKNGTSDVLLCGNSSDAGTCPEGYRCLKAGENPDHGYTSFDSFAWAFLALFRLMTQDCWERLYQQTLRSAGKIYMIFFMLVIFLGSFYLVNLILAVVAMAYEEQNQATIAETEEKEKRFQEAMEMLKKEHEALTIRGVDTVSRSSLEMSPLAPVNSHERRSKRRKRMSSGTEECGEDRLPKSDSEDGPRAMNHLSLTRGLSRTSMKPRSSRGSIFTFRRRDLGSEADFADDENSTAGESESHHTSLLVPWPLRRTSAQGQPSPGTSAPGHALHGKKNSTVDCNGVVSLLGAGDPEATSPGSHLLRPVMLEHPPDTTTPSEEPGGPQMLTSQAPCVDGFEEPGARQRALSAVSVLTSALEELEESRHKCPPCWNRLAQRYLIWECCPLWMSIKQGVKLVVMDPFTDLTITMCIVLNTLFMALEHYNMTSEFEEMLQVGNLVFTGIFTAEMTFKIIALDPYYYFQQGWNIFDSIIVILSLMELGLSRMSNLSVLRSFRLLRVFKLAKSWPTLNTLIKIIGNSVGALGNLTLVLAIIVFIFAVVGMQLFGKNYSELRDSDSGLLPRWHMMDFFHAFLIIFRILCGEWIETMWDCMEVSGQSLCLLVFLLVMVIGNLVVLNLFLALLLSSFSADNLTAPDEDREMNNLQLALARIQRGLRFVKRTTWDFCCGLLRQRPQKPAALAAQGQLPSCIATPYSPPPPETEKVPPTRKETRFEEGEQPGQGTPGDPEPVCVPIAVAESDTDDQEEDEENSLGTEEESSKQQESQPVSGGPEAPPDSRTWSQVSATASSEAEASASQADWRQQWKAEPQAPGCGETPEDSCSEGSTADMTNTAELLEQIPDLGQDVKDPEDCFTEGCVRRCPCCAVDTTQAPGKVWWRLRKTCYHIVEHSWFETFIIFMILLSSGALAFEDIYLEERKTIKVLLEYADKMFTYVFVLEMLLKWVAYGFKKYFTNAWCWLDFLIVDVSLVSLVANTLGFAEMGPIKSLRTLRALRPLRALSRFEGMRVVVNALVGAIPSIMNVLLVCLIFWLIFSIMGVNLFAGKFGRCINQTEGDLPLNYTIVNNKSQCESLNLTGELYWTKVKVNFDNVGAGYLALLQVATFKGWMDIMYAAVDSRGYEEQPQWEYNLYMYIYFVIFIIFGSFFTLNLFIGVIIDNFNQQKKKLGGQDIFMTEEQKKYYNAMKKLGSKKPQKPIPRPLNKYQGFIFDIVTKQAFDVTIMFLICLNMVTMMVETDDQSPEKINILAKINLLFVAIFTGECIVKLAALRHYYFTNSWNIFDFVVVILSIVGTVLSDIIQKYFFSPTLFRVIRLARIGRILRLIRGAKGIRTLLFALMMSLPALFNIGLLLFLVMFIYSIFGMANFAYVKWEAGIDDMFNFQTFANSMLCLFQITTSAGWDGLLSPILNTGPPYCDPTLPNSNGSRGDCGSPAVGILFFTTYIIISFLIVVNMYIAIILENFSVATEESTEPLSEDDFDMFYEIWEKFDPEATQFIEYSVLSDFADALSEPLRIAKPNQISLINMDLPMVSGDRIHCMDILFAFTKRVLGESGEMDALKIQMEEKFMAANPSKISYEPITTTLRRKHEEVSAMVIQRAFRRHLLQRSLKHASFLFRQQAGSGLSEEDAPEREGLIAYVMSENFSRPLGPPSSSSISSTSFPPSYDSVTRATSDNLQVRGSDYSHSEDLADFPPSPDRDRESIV

On to `CC1[C@@H](C(=O)O)N(C(=O)c2cc(C3CC3)c(OCC3(F)CCN([C@@H](C)c4cc(Cl)cc(Cl)c4)CC3)cc2F)C[C@@H]1F` (stereo partly drawn) [Example 209, (2S,4R)-1-(5-cyclopropyl-4-((1-((S)-1-(3,5-dichlorophenyl)ethyl)-4-fluoropiperidin-4-yl)methoxy)-2-fluorobenzoyl)-4-fluoro-3-methylpyrrolidine-2-carboxylic acid], for which the values for the IC50 in data set [1], in data set [2] and in data set [3] (read-out: Nav1.5) were 700 nM, 200 nM and 20000 nM, respectively.

Take `O=C(O)C1=CCCN1C(=O)c1cc(C2CC2)c(OCC23CC4CC(CC(C4)C2)C3)cc1F` [Example 167, 1-[4-(1-adamantylmethoxy)-5-cyclopropyl-2-fluoro-benzoyl]-2,3-dihydropyrrole-5-carboxylic acid]: the IC50 amounted to 660 nM in data set [1], 190 nM in data set [2] and 28000 nM in data set [3] (read-out: Nav1.5).

Take `O=C(c1cc(C2CC2)c(OCC23CC4CC(CC(C4)C2)C3)cc1F)N1CCC2CC21C(=O)O` (stereo not drawn) [Example 212, 2-(4-((Adamantan-1-yl)methoxy)-5-cyclopropyl-2-fluorobenzoyl)-2-azabicyclo[3.1.0]hexane-1 carboxylicacid]: the IC50 amounted to 3500 nM in data set [1], 290 nM in data set [2] and 17000 nM in data set [3] (read-out: Nav1.5).

As to `O=C(O)[C@@H]1CCCN1C(=O)c1cc(Cl)c(COc2cnc(OCC(F)(F)C(F)F)c(Cl)c2)cc1F` [Example 180, (S)-1-(5-chloro-4-(((5-chloro-6-(2,2,3,3-tetrafluoropropoxy)pyridin-3-yl)oxy)methyl)-2-fluorobenzoyl)pyrrolidine-2-carboxylic acid], the values for the IC50 in data set [1], in data set [2] and in data set [3] (setting [4]) were 1400 nM, 830 nM and no less than 30000 nM, respectively.

For `C[C@@H]1[C@@H](C(=O)O)N(C(=O)c2cc(C3CC3)c(OCC34CC5CC(CC(C5)C3)C4)cc2F)C[C@@H]1F` [Example 219, (2S,3R,4R)-1-(4-(adamantan-1-ylmethoxy)-5-cyclopropyl-2-fluorobenzoyl)-4-fluoro-3-methylpyrrolidine-2-carboxylic acid], the results for the IC50 in data set [1], in data set [2] and in data set [3] (read-out: Nav1.5) were 260 nM, 6.4 nM and 12000 nM, respectively.

Consider `CC(c1cc(Cl)cc(Cl)c1)N1CCC(COc2cc(F)c(C(=O)N3CCC[C@H]3C(=O)O)cc2C2CC2)CC1` (single isomer, unassigned) [Example 79b], for which the IC50 in data set [1] was 790 nM; in data set [2] it was 73 nM; in data set [3] (setting [4]) it was no less than 30000 nM.

Take `CC1[C@H](O)CN(C(=O)c2cc(C3CC3)c(OCC3(F)CCN([C@@H](C)c4cc(Cl)cc(Cl)c4)CC3)cc2F)[C@@H]1C(=O)O` (stereo partly drawn) [Example 208, (2S,4S)-1-(5-Cyclopropyl-4-((1-((S)-1-(3,5-dichlorophenyl)ethyl)-4-fluoropiperidin-4-yl)methoxy)-2-fluorobenzoyl)-4-hydroxy-3-methylpyrrolidine-2-carboxylic acid]: the IC50 in data set [1] amounted to 210 nM; in data set [2] it was 82 nM; in data set [3] (read-out: Nav1.5), 16000 nM.

Take `O=C(O)[C@@H]1C[C@@H](F)CN1C(=O)c1cc(C2CC2)c(OCC2CCN(Cc3cc(F)c(Cl)cc3Cl)CC2)cc1F` [Example 108, (2S,4R)-1-(5-cyclopropyl-4-((1-(2,4-dichloro-5-fluorobenzyl)piperidin-4-yl)methoxy)-2-fluorobenzoyl)-4-fluoropyrrolidine-2-carboxylic acid]: the IC50 in data set [1] was 220 nM; in data set [2] it was 17 nM; in data set [3] (read-out: Nav1.5), 9600 nM.

For `C[C@@]1(COc2cc(F)c(C(=O)N3CCC[C@H]3C(=O)O)cc2C2CC2)CCN(Cc2cc(F)cc(Cl)c2)C1` (single isomer, unassigned) [Example 137a], the IC50 in data set [1] was 3700 nM; in data set [2], 570 nM; in data set [3] (read-out: Nav1.5) it was 15000 nM.

Turning to `CC(C)[C@@H](C(=O)O)N(C)C(=O)c1cc(C2CC2)c(COc2cc(Cl)cc(OC(F)(F)F)c2)cc1F` [Example 187, (S)-2-(4-((3-chloro-5-(trifluoromethoxy)phenoxy)methyl)-5-cyclopropyl-2-fluoro-N-methylbenzamido)-3-methylbutanoic acid], the IC50 was 7300 nM in data set [1], 3300 nM in data set [2] and 11000 nM in data set [3] (read-out: Nav1.5).

Take `O=C(O)[C@@H]1C[C@@H](F)CN1C(=O)c1cc(C2CC2)c(OCC2CCN(Cc3ccc(Cl)c(Cl)c3)CC2)cc1F` [Example 175, (2S,4R)-1-(5-cyclopropyl-4-((1-(3,4-dichlorobenzyl)piperidin-4-yl)methoxy)-2-fluorobenzoyl)-4-fluoropyrrolidine-2-carboxylic acid]: the IC50 in data set [1] was 1200 nM; in data set [2], 110 nM; in data set [3] (setting [4]) it was no less than 30000 nM.

On to `O=C(c1cc(C2CC2)c(OCC23CC4CC(CC(C4)C2)C3)cc1F)N1C[C@H](F)C[C@H]1C(O)(C(F)(F)F)C(F)(F)F` [Example 201, (4-(adamantan-1-ylmethoxy)-5-cyclopropyl-2-fluorophenyl)((2S,4R)-4-fluoro-2-(1,1,1,3,3,3-hexafluoro-2-hydroxypropan-2-yl)pyrrolidin-1-yl)methanone], for which the values for the IC50 in data set [1], in data set [2] and in data set [3] (read-out: Nav1.5) were 13000 nM, no less than 10000 nM and 24000 nM, respectively.

`C[C@H]1OCN(C(=O)c2cc(C3CC3)c(OCC3CCN(Cc4c(Cl)cccc4Cl)CC3)cc2F)[C@@H]1C(=O)O` [Example 224, (4S,5R)-3-(5-cyclopropyl-4-((1-(2,6-dichlorobenzyl)piperidin-4-yl)methoxy)-2-fluorobenzoyl)-5-methyloxazolidine-4-carboxylic acid]: the IC50 is 100 nM in data set [1], 14 nM in data set [2] and 22000 nM in data set [3] (read-out: Nav1.5).

On to `O=C(O)[C@@H]1C[C@@H](F)CN1C(=O)c1cc(C2CC2)c(OCC2CCN(Cc3cc(Cl)cc(C(F)(F)F)c3)CC2)cc1F` [Example 173, (2S,4R)-1-(4-((1-(3-chloro-5-(trifluoromethyl)benzyl)piperidin-4-yl)methoxy)-5-cyclopropyl-2-fluorobenzoyl)-4-fluoropyrrolidine-2-carboxylic acid], for which the IC50 came out at 330 nM in data set [1], 65 nM in data set [2] and 23000 nM in data set [3] (read-out: Nav1.5).

On to `C[C@@H]1[C@H](O)CN(C(=O)c2cc(C3CC3)c(OCC34CC5CC(CC(C5)C3)C4)cc2F)[C@@H]1C(=O)O` [Example 231, (2S,3S,4S)-1-(4-(adamantan-1-ylmethoxy)-5-cyclopropyl-2-fluorobenzoyl)-4-hydroxy-3-methylpyrrolidine-2-carboxylic acid], for which the IC50 in data set [1] stood at 360 nM; in data set [2], 290 nM; in data set [3] (read-out: Nav1.5) it was 15000 nM.

Take `O=C(O)[C@@H]1CCCN1C(=O)c1cc(Cl)c(OC2C3CC4CC2CC(Cl)(C4)C3)cc1F` (single isomer, unassigned) [Example 81]: the figures for the IC50 in data set [1], in data set [2] and in data set [3] (setting [4]) were 16000 nM, 8900 nM and no less than 30000 nM, respectively.

With `O=C(O)[C@@H]1[C@H]2C[C@H]2CN1C(=O)c1cc(C2CC2)c(OCC23CC4CC(CC(C4)C2)C3)cc1F` (stereo in doubt) [Example 171, 3-[4-(1-adamantylmethoxy)-5-cyclopropyl-2-fluoro-benzoyl]-3-azabicyclo[3.1.0]hexane-4-carboxylic acid], the IC50 in data set [1] was 240 nM; in data set [2] it was 25 nM; in data set [3] (read-out: Nav1.5), 9000 nM.

On to `O=C(O)[C@@H]1CCCCN1C(=O)c1cc(C2CC2)c(OCC23CC4CC(CC(C4)C2)C3)cc1F` [Example 83, (S)-1-(4-(adamantan-1-ylmethoxy)-5-cyclopropyl-2-fluorobenzoyl)piperidine-2-carboxylic acid], for which the IC50 in data set [1] was determined as 2000 nM; in data set [2] it was 480 nM; in data set [3] (read-out: Nav1.5), 14000 nM.

Regarding `C[C@@H](O)[C@H](NC(=O)c1cc(C2CC2)c(OCC23CC4CC(CC(C4)C2)C3)cc1F)C(=O)O` [Example 57], the results for the IC50 in data set [1], in data set [2] and in data set [3] (read-out: Nav1.5) were 2100 nM, 430 nM and 23000 nM, respectively.

With `C[C@H]1OCN(C(=O)c2cc(C3CC3)c(OCC3CCN(Cc4cc(C(F)(F)F)cc(Cl)c4F)CC3)cc2F)[C@@H]1C(=O)O` [Example 227, (4S,5R)-3-(4-((1-(3-chloro-2-fluoro-5-(trifluoromethyl)benzyl)piperidin-4-yl)methoxy)-5-cyclopropyl-2-fluorobenzoyl)-5-methyloxazolidine-4-carboxylic acid], the values for the IC50 in data set [1], in data set [2] and in data set [3] (read-out: Nav1.5) were 65 nM, 29 nM and 16000 nM, respectively.

Regarding `CO[C@@H]1C[C@@H](C(=O)O)N(C(=O)c2cc(C3CC3)c(OCC34CC5CC(CC(C5)C3)C4)cc2F)C1` [Example 59, (2S,4R)-1-(4-((adamantan-1-yl)methoxy)-5-cyclopropyl-2-fluorobenzoyl)-4-methoxypyrrolidine-2-carboxylic acid], the IC50 in data set [1] stood at 550 nM; in data set [2] it was 34 nM; in data set [3] (read-out: Nav1.5), 26000 nM.

For the compound `CC(c1cc(Cl)cc(Cl)c1)N1CCC(F)(COc2cc(F)c(C(=O)N3C[C@H](F)C[C@H]3C(=O)O)cc2C2CC2)CC1` (stereo partly drawn) [Example 129, (2S,4R)-1-(5-cyclopropyl-4-((1-(1-(3,5-dichlorophenyl)ethyl)-4-fluoropiperidin-4-yl)methoxy)-2-fluorobenzoyl)-4-fluoropyrrolidine-2-carboxylic acid], the figures for the IC50 in data set [1], in data set [2] and in data set [3] (read-out: Nav1.5) were 160 nM, 22 nM and 9400 nM, respectively.
